ChEMBL document CHEMBL6127119 (J Med Chem, 2024)
In brackets after ≈: the same amount, converted by molar mass.

Columns and labels:
Acinetobacter baumannii [1] = experiment: Antibacterial activity against Carbapenem-resistant Acinetobacter baumannii clinical isolate incubated for 16 to 24 hrs by CLSI based broth microdilution method; format: functional; conditions: time 16-24 hrs
Pseudomonas aeruginosa = experiment: Antibacterial activity against Pseudomonas aeruginosa PAO1 incubated for 16 to 24 hrs by CLSI based broth microdilution method; format: functional; conditions: time 16-24 hrs
Klebsiella pneumoniae = experiment: Antibacterial activity against Klebsiella pneumoniae clinical isolate incubated for 16 to 24 hrs by CLSI based broth microdilution method; format: functional; conditions: time 16-24 hrs
Enterococcus faecium [2] = experiment: Antibacterial activity against vancomycin-resistant Enterococcus faecium harboring VanA phenotype incubated for 16 to 24 hrs by CLSI based broth microdilution method; format: functional; conditions: time 16-24 hrs
Acinetobacter baumannii [3] = experiment: Potency index, ratio of Vancomycin MIC to test compound MIC for Carbapenem-resistant Acinetobacter baumannii clinical isolate incubated for 16 to 24 hrs by CLSI based broth microdilution method; format: functional; conditions: time 16-24 hrs
Staphylococcus aureus [4] = experiment: Potency index, ratio of Norvancomycin MIC to test compound MIC for vancomycin-intermediate Staphylococcus aureus incubated for 16 to 24 hrs by CLSI based broth microdilution method; format: functional; conditions: time 16-24 hrs
Enterococcus faecium [5] = experiment: Antibacterial activity against vancomycin-resistant Enterococcus faecium harboring VanB phenotype incubated for 16 to 24 hrs by CLSI based broth microdilution method; format: functional; conditions: time 16-24 hrs
Escherichia coli [6] = experiment: Antibacterial activity against Escherichia coli AB1157 incubated for 16 to 24 hrs by CLSI based broth microdilution method; format: functional; conditions: time 16-24 hrs
Enterococcus faecium [7] = experiment: Potency index, ratio of Vancomycin MIC to test compound MIC for vancomycin-resistant Enterococcus faecium incubated for 16 to 24 hrs by CLSI based broth microdilution method; format: functional; conditions: time 16-24 hrs
Staphylococcus aureus [8] = experiment: Potency index, ratio of Vancomycin MIC to test compound MIC for vancomycin-intermediate Staphylococcus aureus incubated for 16 to 24 hrs by CLSI based broth microdilution method; format: functional; conditions: time 16-24 hrs
Escherichia coli [9] = experiment: Potency index, ratio of Vancomycin MIC to test compound MIC for Escherichia coli […] incubated for 16 to 24 hrs by CLSI based broth microdilution method; format: functional; conditions: time 16-24 hrs
Enterococcus faecium [10] = experiment: Potency index, ratio of Norvancomycin MIC to test compound MIC for vancomycin-resistant Enterococcus faecium incubated for 16 to 24 hrs by CLSI based broth microdilution method; format: functional; conditions: time 16-24 hrs
Escherichia coli [11] = experiment: Potency index, ratio of Norvancomycin MIC to test compound MIC for Escherichia coli […] incubated for 16 to 24 hrs by CLSI based broth microdilution method; format: functional; conditions: time 16-24 hrs
Enterococcus faecium [12] = experiment: Antibacterial activity against vancomycin-resistant Enterococcus faecium harboring VanM phenotype incubated for 16 to 24 hrs by CLSI based broth microdilution method; format: functional; conditions: time 16-24 hrs
Staphylococcus aureus [13] = experiment: Antibacterial activity against vancomycin-intermediate Staphylococcus aureus incubated for 16 to 24 hrs by CLSI based broth microdilution method; format: functional; conditions: time 16-24 hrs
Acinetobacter baumannii [14] = experiment: Potency index, ratio of Norvancomycin MIC to test compound MIC for Carbapenem-resistant Acinetobacter baumannii clinical isolate incubated for 16 to 24 hrs by CLSI based broth microdilution method; format: functional; conditions: time 16-24 hrs
Staphylococcus aureus [15] = experiment: Antibacterial activity against methicillin-susceptible Staphylococcus aureus incubated for 16 to 24 hrs by CLSI based broth microdilution method; format: functional; conditions: time 16-24 hrs
Staphylococcus aureus [16] = experiment: Antibacterial activity against methicillin-resistant Staphylococcus aureus clinical isolate incubated for 16 to 24 hrs by CLSI based broth microdilution method; format: functional; conditions: time 16-24 hrs
Enterococcus faecalis = experiment: Antibacterial activity against Enterococcus faecalis clinical isolate incubated for 16 to 24 hrs by CLSI based broth microdilution method; format: functional; conditions: time 16-24 hrs
[17] = system: Staphylococcus epidermidis; experiment: Antibacterial activity against methicillin-resistant Staphylococcus epidermidis clinical isolate incubated for 16 to 24 hrs by CLSI based broth microdilution method; format: functional; conditions: time 16-24 hrs
Staphylococcus hominis = experiment: Antibacterial activity against methicillin-resistant Staphylococcus hominis clinical isolate incubated for 16 to 24 hrs by CLSI based broth microdilution method; format: functional; conditions: time 16-24 hrs
[18] = system: Staphylococcus haemolyticus; experiment: Antibacterial activity against methicillin-resistant Staphylococcus haemolyticus clinical isolate incubated for 16 to 24 hrs by CLSI based broth microdilution method; format: functional; conditions: time 16-24 hrs
Enterococcus faecium [19] = experiment: Antibacterial activity against Enterococcus faecium clinical isolate incubated for 16 to 24 hrs by CLSI based broth microdilution method; format: functional; conditions: time 16-24 hrs
HEK-293T [20] = experiment: Cytotoxicity against HEK293T cells upto […] incubated for 72 hrs by MTT assay; format: toxicity, cell-based; conditions: human
HEK-293T [21] = experiment: Cytotoxicity against HEK293T cells at 100 ug/ml incubated for 72 hrs by MTT assay; format: toxicity, cell-based; conditions: human, dose 100 µg/ml

Row | SMILES | MIC (Acinetobacter baumannii [1]) | MIC (Pseudomonas aeruginosa) | MIC (Klebsiella pneumoniae) | MIC (Enterococcus faecium [2]) | Ratio (Acinetobacter baumannii [3]) | Ratio (Staphylococcus aureus [4]) | MIC (Enterococcus faecium [5]) | MIC (Escherichia coli [6]) | Ratio (Enterococcus faecium [7]) | Ratio (Staphylococcus aureus [8]) | Ratio (Escherichia coli [9]) | Ratio (Enterococcus faecium [10]) | Ratio (Escherichia coli [11]) | MIC (Enterococcus faecium [12]) | MIC (Staphylococcus aureus [13]) | Ratio (Acinetobacter baumannii [14]) | MIC (Staphylococcus aureus [15]) | other results
1 | CC(C)C[C@@H](N)C(=O)N[C@H]1C(=O)N[C@@H](CC(N)=O)C(=O)N[C@H]2C(=O)N[C@H]3C(=O)N[C@H](C(=O)N[C@H](C(=O)NCc4ccc(-c5ccccc5CNC(=N)N)cc4)c4cc(O)cc(O)c4-c4cc3ccc4O)[C@H](O)c3ccc(c(Cl)c3)Oc3cc2cc(c3O[C@@H]2O[C@H](CO)[C@@H](O)[C@H](O)[C@H]2O[C@H]2C[C@](C)(N)[C@H](O)[C@H](C)O2)Oc2ccc(cc2Cl)[C@H]1O | 16 µg/mL (≈ 9.57 µM) | 32 µg/mL (≈ 19.1 µM) | > 128 µg/mL | 4 µg/mL (≈ 2.39 µM) | 2 | 2 | 2 µg/mL (≈ 1.2 µM) | 8 µg/mL (≈ 4.79 µM) | 2 | 2 | 2 | 2 | 2 | 2 µg/mL (≈ 1.2 µM) | 0.5 µg/mL (≈ 0.299 µM) | 2 | ≤ 0.063 µg/mL | 
2 | CN[C@H](CC(C)C)C(=O)N[C@H]1C(=O)N[C@@H](CC(N)=O)C(=O)N[C@H]2C(=O)N[C@H]3C(=O)N[C@H](C(=O)N[C@H](C(=O)O)c4cc(O)cc(O)c4-c4cc3ccc4O)[C@H](O[C@H]3C[C@](C)(N)[C@@H](O)[C@H](C)O3)c3ccc(c(Cl)c3)Oc3cc2cc(c3O[C@@H]2O[C@H](CO)[C@@H](O)[C@H](O)[C@H]2O[C@H]2C[C@](C)(NCc3ccc(-c4ccc(Cl)cc4)cc3)[C@@H](O)[C@H](C)O2)Oc2ccc(cc2Cl)[C@H]1O [ORITAVANCIN] |  |  |  |  |  |  |  |  |  |  |  |  |  |  |  |  |  | MIC (Staphylococcus aureus [16]): 0.12 µg/mL (≈ 0.0669 µM); MIC (Enterococcus faecalis): ≤ 0.03 µg/mL; MIC [17]: 0.12 µg/mL (≈ 0.0669 µM); MIC (Staphylococcus hominis): 0.12 µg/mL (≈ 0.0669 µM); MIC [18]: 0.06 µg/mL (≈ 0.0335 µM); MIC (Enterococcus faecium [19]): ≤ 0.03 µg/mL
3 | CC(C)C[C@@H](N)C(=O)N[C@H]1C(=O)N[C@@H](CC(N)=O)C(=O)N[C@H]2C(=O)N[C@H]3C(=O)N[C@H](C(=O)N[C@H](C(=O)NCCc4ccc(-c5ccc(CNC(=N)N)cc5)cc4)c4cc(O)cc(O)c4-c4cc3ccc4O)[C@H](O)c3ccc(c(Cl)c3)Oc3cc2cc(c3O[C@@H]2O[C@H](CO)[C@@H](O)[C@H](O)[C@H]2O[C@H]2C[C@](C)(N)[C@H](O)[C@H](C)O2)Oc2ccc(cc2Cl)[C@H]1O | 128 µg/mL (≈ 75.9 µM) | > 128 µg/mL | > 128 µg/mL | 4 µg/mL (≈ 2.37 µM) | 2 | 2 | 4 µg/mL (≈ 2.37 µM) | 8 µg/mL (≈ 4.75 µM) | 2 | 2 | 2 | 2 | 2 | 4 µg/mL (≈ 2.37 µM) | 0.5 µg/mL (≈ 0.297 µM) | 2 | 0.125 µg/mL (≈ 0.0742 µM) | 
4 | CN[C@H](CC(C)C)C(=O)N[C@H]1C(=O)N[C@@H](CC(N)=O)C(=O)N[C@H]2C(=O)N[C@H]3C(=O)N[C@H](C(=O)N[C@H](C(=O)NCc4ccc(-c5ccc(CCNC(=N)N)cc5)cc4)c4cc(O)cc(O)c4-c4cc3ccc4O)[C@H](O)c3ccc(c(Cl)c3)Oc3cc2cc(c3O[C@@H]2O[C@H](CO)[C@@H](O)[C@H](O)[C@H]2O[C@H]2C[C@](C)(N)[C@H](O)[C@H](C)O2)Oc2ccc(cc2Cl)[C@H]1O | 16 µg/mL (≈ 9.41 µM) |  | > 128 µg/mL | 2 µg/mL (≈ 1.18 µM) | 2 | 2 | 1 µg/mL (≈ 0.588 µM) | 8 µg/mL (≈ 4.71 µM) | 2 | 2 | 2 | 2 | 2 | 2 µg/mL (≈ 1.18 µM) | 0.5 µg/mL (≈ 0.294 µM) | 2 | 0.25 µg/mL (≈ 0.147 µM) | 
5 | CN[C@H](CC(C)C)C(=O)N[C@H]1C(=O)N[C@@H](CC(N)=O)C(=O)N[C@H]2C(=O)N[C@H]3C(=O)N[C@H](C(=O)N[C@H](C(=O)NCCCCCCCCNC(=N)N)c4cc(O)cc(O)c4-c4cc3ccc4O)[C@H](O)c3ccc(c(Cl)c3)Oc3cc2cc(c3O[C@@H]2O[C@H](CO)[C@@H](O)[C@H](O)[C@H]2O[C@H]2C[C@](C)(N)[C@H](O)[C@H](C)O2)Oc2ccc(cc2Cl)[C@H]1O | 32 µg/mL (≈ 19.8 µM) | 128 µg/mL (≈ 79.1 µM) | 128 µg/mL (≈ 79.1 µM) | 8 µg/mL (≈ 4.95 µM) |  |  | 8 µg/mL (≈ 4.95 µM) | 16 µg/mL (≈ 9.89 µM) |  |  |  |  |  | 16 µg/mL (≈ 9.89 µM) | 1 µg/mL (≈ 0.618 µM) |  | 0.25 µg/mL (≈ 0.155 µM) | Activity (HEK-293T [20]): Non-Toxic; Activity (HEK-293T [21]): Non-Toxic
